# From PubChem BioAssay (NCI)
#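 These data come from cells grown in 96-well plates and exposed to compound for 48 hours at five concentrations. TGI is the concentration that stops growth completely.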
# Experiments:
# Assay in all cases: NCI tumour cell line growth inhibition, 48 h
# SK-OV-3 ovarian = test system: SK-OV-3 ovarian
# OVCAR-4 ovarian = test system: OVCAR-4 ovarian
# SW-620 colon = test system: SW-620 colon
# SF-268 CNS = test system: SF-268 CNS
# UACC-62 melanoma = test system: UACC-62 melanoma
# BT-549 breast = test system: BT-549 breast
# A549 NSCLC = test system: A549 NSCLC
# ACHN renal = test system: ACHN renal
# NCI-H23 lung = test system: NCI-H23 lung
# MDA-N = test system: MDA-N
# SF-295 CNS = test system: SF-295 CNS
# T-47D breast = test system: T-47D breast
# MDA-MB-435 = test system: MDA-MB-435
# HCT-116 colon = test system: HCT-116 colon
# UACC-257 melanoma = test system: UACC-257 melanoma
# NCI/ADR-RES ovarian = test system: NCI/ADR-RES ovarian
# KM12 colon = test system: KM12 colon
# HOP-62 NSCLC = test system: HOP-62 NSCLC
# OVCAR-5 ovarian = test system: OVCAR-5 ovarian
# SK-MEL-5 melanoma = test system: SK-MEL-5 melanoma
# A498 renal = test system: A498 renal
# U251 CNS = test system: U251 CNS
# MDA-MB-231 breast = test system: MDA-MB-231 breast
# NCI-H522 lung = test system: NCI-H522 lung
# SNB-19 CNS = test system: SNB-19 CNS
# 786-0 renal = test system: 786-0 renal
# OVCAR-3 ovarian = test system: OVCAR-3 ovarian
# CCRF-CEM leukemia = test system: CCRF-CEM leukemia
# K-562 leukemia = test system: K-562 leukemia
# SNB-75 CNS = test system: SNB-75 CNS
# PC-3 prostate = test system: PC-3 prostate
# LOX IMVI melanoma = test system: LOX IMVI melanoma
# HS 578T breast = test system: HS 578T breast
# SN12C renal = test system: SN12C renal
# NCI-H226 lung = test system: NCI-H226 lung
# RXF 393 renal = test system: RXF 393 renal
# HT29 colon = test system: HT29 colon
# SK-MEL-2 melanoma = test system: SK-MEL-2 melanoma
# CAKI-1 renal = test system: CAKI-1 renal
# MOLT-4 leukemia = test system: MOLT-4 leukemia
# HCT-15 colon = test system: HCT-15 colon
# M14 melanoma = test system: M14 melanoma
# HOP-92 NSCLC = test system: HOP-92 NSCLC
# MALME-3M melanoma = test system: MALME-3M melanoma
# UO-31 renal = test system: UO-31 renal
# TK-10 renal = test system: TK-10 renal
# RPMI-8226 leukemia = test system: RPMI-8226 leukemia
# EKVX NSCLC = test system: EKVX NSCLC
# OVCAR-8 ovarian = test system: OVCAR-8 ovarian
# COLO 205 colon = test system: COLO 205 colon
# DU-145 prostate = test system: DU-145 prostate
# IGROV1 ovarian = test system: IGROV1 ovarian
# SK-MEL-28 melanoma = test system: SK-MEL-28 melanoma
# HCC-2998 colon = test system: HCC-2998 colon
# NCI-H460 lung = test system: NCI-H460 lung
# HL-60(TB) leukemia = test system: HL-60(TB) leukemia
# SR leukemia = test system: SR leukemia
# MCF7 breast = test system: MCF7 breast
# SF-539 CNS = test system: SF-539 CNS
compound,measurement,setting,value
Cc1ccccc1N=Nc1cc(C)c(N=Nc2c(O)ccc3ccccc23)cc1C,TGI,SK-OV-3 ovarian,> 100 µM
same,TGI,OVCAR-4 ovarian,> 100 µM
same,TGI,SW-620 colon,> 100 µM
same,TGI,SF-268 CNS,> 100 µM
same,TGI,UACC-62 melanoma,> 100 µM
same,TGI,BT-549 breast,> 100 µM
same,TGI,A549 NSCLC,> 100 µM
same,TGI,ACHN renal,> 100 µM
same,TGI,NCI-H23 lung,> 100 µM
same,TGI,MDA-N,> 100 µM
same,TGI,SF-295 CNS,> 100 µM
same,TGI,T-47D breast,> 100 µM
same,TGI,MDA-MB-435,> 100 µM
same,TGI,HCT-116 colon,> 100 µM
same,TGI,UACC-257 melanoma,> 100 µM
same,TGI,NCI/ADR-RES ovarian,> 100 µM
same,TGI,KM12 colon,> 100 µM
same,TGI,HOP-62 NSCLC,> 100 µM
same,TGI,OVCAR-5 ovarian,> 100 µM
same,TGI,SK-MEL-5 melanoma,> 100 µM
same,TGI,A498 renal,> 100 µM
same,TGI,U251 CNS,> 100 µM
same,TGI,MDA-MB-231 breast,> 100 µM
same,TGI,NCI-H522 lung,> 100 µM
same,TGI,SNB-19 CNS,> 100 µM
same,TGI,786-0 renal,> 100 µM
same,TGI,OVCAR-3 ovarian,> 100 µM
same,TGI,CCRF-CEM leukemia,> 100 µM
same,TGI,K-562 leukemia,> 100 µM
same,TGI,SNB-75 CNS,> 100 µM
same,TGI,PC-3 prostate,> 100 µM
same,TGI,LOX IMVI melanoma,> 100 µM
same,TGI,HS 578T breast,> 100 µM
same,TGI,SN12C renal,> 100 µM
same,TGI,NCI-H226 lung,> 100 µM
same,TGI,RXF 393 renal,> 100 µM
same,TGI,HT29 colon,> 100 µM
same,TGI,SK-MEL-2 melanoma,> 100 µM
same,TGI,CAKI-1 renal,> 100 µM
same,TGI,MOLT-4 leukemia,> 100 µM
same,TGI,HCT-15 colon,> 100 µM
same,TGI,M14 melanoma,> 100 µM
same,TGI,HOP-92 NSCLC,> 100 µM
same,TGI,MALME-3M melanoma,> 100 µM
same,TGI,UO-31 renal,> 100 µM
same,TGI,TK-10 renal,> 100 µM
same,TGI,RPMI-8226 leukemia,> 100 µM
same,TGI,EKVX NSCLC,> 100 µM
same,TGI,OVCAR-8 ovarian,> 100 µM
same,TGI,COLO 205 colon,> 100 µM
same,TGI,DU-145 prostate,> 100 µM
same,TGI,IGROV1 ovarian,> 100 µM
same,TGI,SK-MEL-28 melanoma,> 100 µM
COC(=O)/C=C\n1ncc(=O)[nH]c1=O,TGI,OVCAR-4 ovarian,> 100 µM
same,TGI,SW-620 colon,> 100 µM
same,TGI,SF-268 CNS,> 100 µM
same,TGI,BT-549 breast,> 100 µM
same,TGI,A549 NSCLC,> 100 µM
same,TGI,ACHN renal,> 100 µM
same,TGI,HCC-2998 colon,> 100 µM
same,TGI,NCI-H23 lung,> 100 µM
same,TGI,MDA-N,> 100 µM
same,TGI,T-47D breast,> 100 µM
same,TGI,MDA-MB-435,> 100 µM
same,TGI,UACC-257 melanoma,> 100 µM
same,TGI,NCI/ADR-RES ovarian,> 100 µM
same,TGI,HOP-62 NSCLC,> 100 µM
same,TGI,OVCAR-5 ovarian,> 100 µM
same,TGI,SK-MEL-5 melanoma,> 100 µM
same,TGI,A498 renal,> 100 µM
same,TGI,U251 CNS,> 100 µM
same,TGI,MDA-MB-231 breast,> 100 µM
same,TGI,NCI-H522 lung,> 100 µM
same,TGI,SNB-19 CNS,> 100 µM
same,TGI,NCI-H460 lung,> 100 µM
same,TGI,OVCAR-3 ovarian,> 100 µM
same,TGI,K-562 leukemia,> 100 µM
same,TGI,HL-60(TB) leukemia,> 100 µM
same,TGI,SNB-75 CNS,> 100 µM
same,TGI,PC-3 prostate,> 100 µM
same,TGI,HS 578T breast,> 100 µM
same,TGI,SN12C renal,> 100 µM
same,TGI,NCI-H226 lung,> 100 µM
same,TGI,HT29 colon,> 100 µM
same,TGI,SK-MEL-2 melanoma,> 100 µM
same,TGI,CAKI-1 renal,> 100 µM
same,TGI,MOLT-4 leukemia,> 100 µM
same,TGI,HCT-15 colon,> 100 µM
same,TGI,M14 melanoma,> 100 µM
same,TGI,HOP-92 NSCLC,> 100 µM
same,TGI,MALME-3M melanoma,> 100 µM
same,TGI,UO-31 renal,> 100 µM
same,TGI,TK-10 renal,> 100 µM
same,TGI,RPMI-8226 leukemia,> 100 µM
same,TGI,EKVX NSCLC,> 100 µM
same,TGI,OVCAR-8 ovarian,> 100 µM
same,TGI,COLO 205 colon,> 100 µM
same,TGI,DU-145 prostate,> 100 µM
same,TGI,IGROV1 ovarian,> 100 µM
same,TGI,SK-MEL-28 melanoma,> 100 µM
Cc1ccc(S(=O)(=O)NC(CCC(=O)NN)C(=O)NN)cc1 (stereo not given),TGI,SK-OV-3 ovarian,> 100 µM
same,TGI,OVCAR-4 ovarian,> 100 µM
same,TGI,SR leukemia,> 100 µM
same,TGI,SW-620 colon,> 100 µM
same,TGI,SF-268 CNS,> 100 µM
same,TGI,UACC-62 melanoma,> 100 µM
same,TGI,BT-549 breast,> 100 µM
same,TGI,A549 NSCLC,> 100 µM
same,TGI,ACHN renal,> 100 µM
same,TGI,NCI-H23 lung,> 100 µM
same,TGI,MDA-N,> 100 µM
same,TGI,SF-295 CNS,> 100 µM
same,TGI,T-47D breast,> 100 µM
same,TGI,MDA-MB-435,> 100 µM
same,TGI,HCT-116 colon,> 100 µM
same,TGI,UACC-257 melanoma,> 100 µM
same,TGI,NCI/ADR-RES ovarian,> 100 µM
same,TGI,KM12 colon,> 100 µM
same,TGI,HOP-62 NSCLC,> 100 µM
same,TGI,OVCAR-5 ovarian,> 100 µM
same,TGI,SK-MEL-5 melanoma,> 100 µM
same,TGI,A498 renal,> 100 µM
same,TGI,U251 CNS,> 100 µM
same,TGI,MDA-MB-231 breast,> 100 µM
same,TGI,NCI-H522 lung,> 100 µM
same,TGI,SNB-19 CNS,> 100 µM
same,TGI,786-0 renal,> 100 µM
same,TGI,NCI-H460 lung,21.6 µM
same,TGI,OVCAR-3 ovarian,> 100 µM
same,TGI,CCRF-CEM leukemia,> 100 µM
same,TGI,K-562 leukemia,> 100 µM
same,TGI,HL-60(TB) leukemia,> 100 µM
same,TGI,SNB-75 CNS,> 100 µM
same,TGI,PC-3 prostate,> 100 µM
same,TGI,LOX IMVI melanoma,> 100 µM
same,TGI,MCF7 breast,> 100 µM
same,TGI,HS 578T breast,> 100 µM
same,TGI,NCI-H226 lung,> 100 µM
same,TGI,RXF 393 renal,> 100 µM
same,TGI,HT29 colon,> 100 µM
same,TGI,SK-MEL-2 melanoma,> 100 µM
same,TGI,CAKI-1 renal,> 100 µM
same,TGI,MOLT-4 leukemia,> 100 µM
same,TGI,HCT-15 colon,> 100 µM
same,TGI,SF-539 CNS,> 100 µM
same,TGI,M14 melanoma,> 100 µM
same,TGI,HOP-92 NSCLC,> 100 µM
same,TGI,MALME-3M melanoma,> 100 µM
same,TGI,UO-31 renal,> 100 µM
same,TGI,TK-10 renal,> 100 µM
same,TGI,RPMI-8226 leukemia,> 100 µM
same,TGI,EKVX NSCLC,> 100 µM
same,TGI,OVCAR-8 ovarian,> 100 µM
same,TGI,COLO 205 colon,> 100 µM
same,TGI,IGROV1 ovarian,> 100 µM
